Measured values reported in the supplement of paper PMC10307832.

Columns and labels:
Assay in all cases: relative viability (nuclei count vs DMSO), 5 days (fraction); higher = more cells survive
[1] = tested on: NCI-H1993
In short: (§1)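 One day after seeding in 1536-well plates, lung cancer cell lines were dosed by pin tool. Dosing was either single-drug or a fixed anchor-drug dose plus five library-drug doses (not always all listed) in √10 steps. After 5 days, nuclei were stained in one fix-and-stain step and counted on 4× images, and relative viability is the nuclei count of treated wells over that of vehicle wells, given as the median of duplicate plates.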

[2] = tested on: COR-L23
In short: as §1

[3] = tested on: NCI-H1793
In short: as §1

[4] = tested on: NCI-H1355
In short: as §1

[5] = tested on: NCI-H838
In short: as §1

[6] = tested on: UMC-11
In short: as §1

[7] = tested on: COR-L 105
In short: as §1

[8] = tested on: SK-MES-1
In short: as §1

[9] = tested on: NCI-H2009
In short: as §1

[10] = tested on: NCI-H358
In short: as §1

[11] = tested on: EKVX
In short: as §1

[12] = tested on: HOP-62
In short: as §1

[13] = tested on: NCI-H1734
In short: as §1

[14] = tested on: NCI-H647
In short: as §1

[15] = tested on: NCI-H1755
In short: as §1

[16] = tested on: NCI-H2342
In short: as §1

[17] = tested on: HARA
In short: as §1

[18] = tested on: PC-14
In short: as §1

[19] = tested on: NCI-H2228
In short: as §1

[20] = tested on: NCI-H2347
In short: as §1

[21] = tested on: NCI-H1395
In short: as §1

[22] = tested on: HCC-15
In short: as §1

[23] = tested on: NCI-H2170
In short: as §1

O=C(O)c1ccc(-c2c[nH]c3ncc(-c4ccccc4)cc23)cc1C1CCCC1 + CC(=O)Nc1cccc(-n2c(=O)n(C3CC3)c(=O)c3c(Nc4ccc(I)cc4F)n(C)c(=O)c(C)c32)c1 [Trametinib] (partner 0.02 µM)
relative viability ([1]; first compound 0.04 µM): 0.473
relative viability ([1]; first compound 0.1265 µM): 0.484
relative viability ([1]; first compound 0.4 µM): 0.42
relative viability ([1]; first compound 1.265 µM): 0.575
relative viability ([2]; first compound 0.04 µM): 0.584
relative viability ([2]; first compound 0.1265 µM): 0.608
relative viability ([2]; first compound 0.4 µM): 0.627
relative viability ([2]; first compound 1.265 µM): 0.507
relative viability ([3]; first compound 0.04 µM): 0.407
relative viability ([3]; first compound 0.1265 µM): 0.51
relative viability ([3]; first compound 0.4 µM): 0.497
relative viability ([3]; first compound 1.265 µM): 0.34
relative viability ([4]; first compound 0.04 µM): 0.42
relative viability ([4]; first compound 0.1265 µM): 0.412
relative viability ([4]; first compound 0.4 µM): 0.459
relative viability ([4]; first compound 1.265 µM): 0.391
relative viability ([5]; first compound 0.04 µM): 0.563
relative viability ([5]; first compound 0.1265 µM): 0.561
relative viability ([5]; first compound 0.4 µM): 0.569
relative viability ([5]; first compound 1.265 µM): 0.472
relative viability ([6]; first compound 0.04 µM): 0.702
relative viability ([6]; first compound 0.1265 µM): 0.719
relative viability ([6]; first compound 0.4 µM): 0.711
relative viability ([6]; first compound 1.265 µM): 0.641
relative viability ([7]; first compound 0.04 µM): 0.402
relative viability ([7]; first compound 0.1265 µM): 0.456
relative viability ([7]; first compound 0.4 µM): 0.46
relative viability ([7]; first compound 1.265 µM): 0.506
relative viability ([8]; first compound 0.04 µM): 0.57
relative viability ([8]; first compound 0.1265 µM): 0.538
relative viability ([8]; first compound 0.4 µM): 0.521
relative viability ([8]; first compound 1.265 µM): 0.524
relative viability ([9]; first compound 0.04 µM): 0.261
relative viability ([9]; first compound 0.1265 µM): 0.311
relative viability ([9]; first compound 0.4 µM): 0.274
relative viability ([9]; first compound 1.265 µM): 0.224
relative viability ([10]; first compound 0.04 µM): 0.146
relative viability ([10]; first compound 0.1265 µM): 0.129
relative viability ([10]; first compound 0.4 µM): 0.138
relative viability ([10]; first compound 1.265 µM): 0.0857
relative viability ([11]; first compound 0.04 µM): 0.322
relative viability ([11]; first compound 0.1265 µM): 0.408
relative viability ([11]; first compound 0.4 µM): 0.33
relative viability ([11]; first compound 1.265 µM): 0.316
relative viability ([12]; first compound 0.04 µM): 0.37
relative viability ([12]; first compound 0.1265 µM): 0.407
relative viability ([12]; first compound 0.4 µM): 0.412
relative viability ([12]; first compound 1.265 µM): 0.376
relative viability ([13]; first compound 0.04 µM): 0.618
relative viability ([13]; first compound 0.1265 µM): 0.706
relative viability ([13]; first compound 0.4 µM): 0.614
relative viability ([13]; first compound 1.265 µM): 0.585
relative viability ([14]; first compound 0.04 µM): 0.432
relative viability ([14]; first compound 0.1265 µM): 0.477
relative viability ([14]; first compound 0.4 µM): 0.478
relative viability ([14]; first compound 1.265 µM): 0.389
relative viability ([15]; first compound 0.04 µM): 0.778
relative viability ([15]; first compound 0.1265 µM): 0.777
relative viability ([15]; first compound 0.4 µM): 0.799
relative viability ([15]; first compound 1.265 µM): 0.754
relative viability ([16]; first compound 0.04 µM): 0.768
relative viability ([16]; first compound 0.1265 µM): 0.839
relative viability ([16]; first compound 0.4 µM): 0.906
relative viability ([16]; first compound 1.265 µM): 0.711
relative viability ([17]; first compound 0.04 µM): 0.692
relative viability ([17]; first compound 0.1265 µM): 0.72
relative viability ([17]; first compound 0.4 µM): 0.74
relative viability ([17]; first compound 1.265 µM): 0.545
relative viability ([18]; first compound 0.04 µM): 0.714
relative viability ([18]; first compound 0.1265 µM): 0.75
relative viability ([18]; first compound 0.4 µM): 0.703
relative viability ([18]; first compound 1.265 µM): 0.688
relative viability ([19]; first compound 0.04 µM): 0.548
relative viability ([19]; first compound 0.1265 µM): 0.581
relative viability ([19]; first compound 0.4 µM): 0.633
relative viability ([19]; first compound 1.265 µM): 0.305
relative viability ([20]; first compound 0.04 µM): 0.267
relative viability ([20]; first compound 0.1265 µM): 0.286
relative viability ([20]; first compound 0.4 µM): 0.311
relative viability ([20]; first compound 1.265 µM): 0.26
relative viability ([21]; first compound 0.04 µM): 0.987
relative viability ([21]; first compound 0.1265 µM): 1.09
relative viability ([21]; first compound 0.4 µM): 1.02
relative viability ([21]; first compound 1.265 µM): 0.957
relative viability ([22]; first compound 0.04 µM): 0.396
relative viability ([22]; first compound 0.1265 µM): 0.395
relative viability ([22]; first compound 0.4 µM): 0.409
relative viability ([22]; first compound 1.265 µM): 0.351
relative viability ([23]; first compound 0.04 µM): 0.899
relative viability ([23]; first compound 0.1265 µM): 0.925
relative viability ([23]; first compound 0.4 µM): 0.887
relative viability ([23]; first compound 1.265 µM): 0.79

O=C(O)c1ccc(-c2c[nH]c3ncc(-c4ccccc4)cc23)cc1C1CCCC1 + CC(=O)c1c(C)c2cnc(Nc3ccc(N4CCNCC4)cn3)nc2n(C2CCCC2)c1=O [Palbociclib] (partner 0.5 µM)
relative viability ([1]; first compound 0.04 µM): 0.62
relative viability ([1]; first compound 0.1265 µM): 0.601
relative viability ([1]; first compound 0.4 µM): 0.596
relative viability ([1]; first compound 1.265 µM): 0.537
relative viability ([2]; first compound 0.04 µM): 0.296
relative viability ([2]; first compound 0.1265 µM): 0.326
relative viability ([2]; first compound 0.4 µM): 0.308
relative viability ([2]; first compound 1.265 µM): 0.205
relative viability ([3]; first compound 0.04 µM): 0.248
relative viability ([3]; first compound 0.1265 µM): 0.338
relative viability ([3]; first compound 0.4 µM): 0.302
relative viability ([3]; first compound 1.265 µM): 0.31
relative viability ([4]; first compound 0.04 µM): 0.393
relative viability ([4]; first compound 0.1265 µM): 0.406
relative viability ([4]; first compound 0.4 µM): 0.407
relative viability ([4]; first compound 1.265 µM): 0.395
relative viability ([5]; first compound 0.04 µM): 0.189
relative viability ([5]; first compound 0.1265 µM): 0.267
relative viability ([5]; first compound 0.4 µM): 0.214
relative viability ([5]; first compound 1.265 µM): 0.215
relative viability ([6]; first compound 0.04 µM): 0.286
relative viability ([6]; first compound 0.1265 µM): 0.312
relative viability ([6]; first compound 0.4 µM): 0.333
relative viability ([6]; first compound 1.265 µM): 0.332
relative viability ([7]; first compound 0.04 µM): 0.422
relative viability ([7]; first compound 0.1265 µM): 0.392
relative viability ([7]; first compound 0.4 µM): 0.349
relative viability ([7]; first compound 1.265 µM): 0.411
relative viability ([8]; first compound 0.04 µM): 0.335
relative viability ([8]; first compound 0.1265 µM): 0.288
relative viability ([8]; first compound 0.4 µM): 0.303
relative viability ([8]; first compound 1.265 µM): 0.265
relative viability ([9]; first compound 0.04 µM): 0.152
relative viability ([9]; first compound 0.1265 µM): 0.246
relative viability ([9]; first compound 0.4 µM): 0.175
relative viability ([9]; first compound 1.265 µM): 0.209
relative viability ([10]; first compound 0.04 µM): 0.128
relative viability ([10]; first compound 0.1265 µM): 0.12
relative viability ([10]; first compound 0.4 µM): 0.124
relative viability ([10]; first compound 1.265 µM): 0.0876
relative viability ([11]; first compound 0.04 µM): 0.444
relative viability ([11]; first compound 0.1265 µM): 0.379
relative viability ([11]; first compound 0.4 µM): 0.233
relative viability ([11]; first compound 1.265 µM): 0.362
relative viability ([12]; first compound 0.04 µM): 0.426
relative viability ([12]; first compound 0.1265 µM): 0.414
relative viability ([12]; first compound 0.4 µM): 0.443
relative viability ([12]; first compound 1.265 µM): 0.434
relative viability ([13]; first compound 0.04 µM): 0.324
relative viability ([13]; first compound 0.1265 µM): 0.328
relative viability ([13]; first compound 0.4 µM): 0.302
relative viability ([13]; first compound 1.265 µM): 0.344
relative viability ([14]; first compound 0.04 µM): 0.399
relative viability ([14]; first compound 0.1265 µM): 0.434
relative viability ([14]; first compound 0.4 µM): 0.453
relative viability ([14]; first compound 1.265 µM): 0.33
relative viability ([15]; first compound 0.04 µM): 0.434
relative viability ([15]; first compound 0.1265 µM): 0.495
relative viability ([15]; first compound 0.4 µM): 0.417
relative viability ([15]; first compound 1.265 µM): 0.48
relative viability ([16]; first compound 0.04 µM): 0.465
relative viability ([16]; first compound 0.1265 µM): 0.568
relative viability ([16]; first compound 0.4 µM): 0.479
relative viability ([16]; first compound 1.265 µM): 0.517
relative viability ([17]; first compound 0.04 µM): 0.308
relative viability ([17]; first compound 0.1265 µM): 0.267
relative viability ([17]; first compound 0.4 µM): 0.248
relative viability ([17]; first compound 1.265 µM): 0.216
relative viability ([18]; first compound 0.04 µM): 0.473
relative viability ([18]; first compound 0.1265 µM): 0.532
relative viability ([18]; first compound 0.4 µM): 0.396
relative viability ([18]; first compound 1.265 µM): 0.486
relative viability ([19]; first compound 0.04 µM): 0.885
relative viability ([19]; first compound 0.1265 µM): 0.736
relative viability ([19]; first compound 0.4 µM): 0.886
relative viability ([19]; first compound 1.265 µM): 0.5
relative viability ([20]; first compound 0.04 µM): 0.453
relative viability ([20]; first compound 0.1265 µM): 0.446
relative viability ([20]; first compound 0.4 µM): 0.386
relative viability ([20]; first compound 1.265 µM): 0.438
relative viability ([21]; first compound 0.04 µM): 0.567
relative viability ([21]; first compound 0.1265 µM): 0.66
relative viability ([21]; first compound 0.4 µM): 0.618
relative viability ([21]; first compound 1.265 µM): 0.567
relative viability ([22]; first compound 0.04 µM): 0.793
relative viability ([22]; first compound 0.1265 µM): 0.762
relative viability ([22]; first compound 0.4 µM): 0.631
relative viability ([22]; first compound 1.265 µM): 0.431
relative viability ([23]; first compound 0.04 µM): 0.387
relative viability ([23]; first compound 0.1265 µM): 0.438
relative viability ([23]; first compound 0.4 µM): 0.39
relative viability ([23]; first compound 1.265 µM): 0.389
